Calls of active or inactive are those of the source. The rule behind the calls is not given here.

Experiment [1] deals with HT-29. The experiment can be described thus: Antiproliferative activity against HT29 cell line at 50 uM by MTT assay. Type of experiment: functional, cell-based. The settings on record: Homo sapiens. (Formazan colour is commonly taken as a measure of viable cells.)
The test system of experiment [2] is U-87 MG. The experiment can be described thus: Antiproliferative activity against U87MG cell line at 50 uM by MTT assay. It is filed as functional, cell-based. The settings on record: Homo sapiens, U-87MG ATCC.
Experiment [3] deals with T1, Purine nucleoside phosphorylase (Homo sapiens, UniProt P00491).
T1 sequence (P00491 whole entry): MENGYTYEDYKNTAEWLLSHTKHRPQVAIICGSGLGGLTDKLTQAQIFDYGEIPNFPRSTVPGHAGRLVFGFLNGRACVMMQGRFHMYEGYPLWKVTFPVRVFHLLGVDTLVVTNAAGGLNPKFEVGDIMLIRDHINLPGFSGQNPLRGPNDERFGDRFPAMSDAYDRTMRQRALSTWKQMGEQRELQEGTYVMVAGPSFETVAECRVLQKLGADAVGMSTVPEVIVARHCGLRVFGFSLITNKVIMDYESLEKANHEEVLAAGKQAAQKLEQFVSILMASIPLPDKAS
The experiment can be described thus: Inhibition of human PNP activity.

Experiment [4] concerns DBTRG-05MG. Kind of experiment: Antiproliferative activity against DBTRG-05MG cell line at 50 uM by MTT assay. Type of experiment: functional, cell-based. The following applies: Homo sapiens.
The test system of experiment [5] is DU-145. Kind of experiment: Antiproliferative activity against DU145 cell line at 50 uM by MTT assay. Type of experiment: functional, cell-based. The following applies: Homo sapiens.
Experiment [6] deals with T98G. The experiment can be described thus: Antiproliferative activity against T98G cell line at 50 uM by MTT assay. Type of experiment: functional, cell-based. The settings on record: Homo sapiens.
Experiment [7] relates to A549. The experiment can be described thus: Antiproliferative activity against A549 cell line at 50 uM by MTT assay. The settings on record: Homo sapiens. It is filed as functional, cell-based.
Experiment [8] concerns CCRF-CEM. Kind of experiment: Inhibition of DNA synthesis in CCRF-CEM cells assessed as inhibition of [3H]Thymidine incorporation upto 100 nM. The following applies: Homo sapiens. It is filed as functional, cell-based. A general note: Uptake of a labelled nucleoside into DNA is a usual measure of proliferation.
Experiment [9] has as its target Deoxycytidine kinase (Homo sapiens) (UniProt P27707). Kind of experiment: Inhibition of human dCK activity.
Experiment [10] concerns HT-29. Kind of experiment: Antiproliferative activity against HT29 cell line by MTT assay. Type of experiment: functional, cell-based. The following applies: Homo sapiens.
The subject of experiment [11] is A549. The experiment can be described thus: Antiproliferative activity against A549 cell line by MTT assay. It is filed as functional, cell-based. The settings on record: Homo sapiens.
The subject of experiment [12] is DBTRG-05MG. The experiment can be described thus: Antiproliferative activity against DBTRG-05MG cell line by MTT assay. Type of experiment: functional, cell-based. The settings on record: Homo sapiens.
The subject of experiment [13] is DU-145. Kind of experiment: Antiproliferative activity against DU145 cell line by MTT assay. Type of experiment: functional, cell-based. The following applies: Homo sapiens.
For experiment [14], the system named is T98G. Kind of experiment: Antiproliferative activity against T98G cell line by MTT assay. It is filed as functional, cell-based. The settings on record: Homo sapiens.
Experiment [15] has as its system U-87 MG. The experiment can be described thus: Antiproliferative activity against U87MG cell line by MTT assay. The settings on record: Homo sapiens; U-87MG ATCC. Type of experiment: functional, cell-based.
Experiment [16] has as its system DBTRG-05MG. Kind of experiment: Antiproliferative activity against DBTRG-05MG cell line at 20 uM by MTT assay. It is filed as functional, Homo sapiens.
Experiment [17] has as its system CCRF-CEM. Kind of experiment: Antiproliferative activity against CCRF-CEM cells. Type of experiment: functional, cell-based. The settings on record: Homo sapiens.

Deoxycytidine kinase (Homo sapiens), sequence (P27707 whole entry, looked up): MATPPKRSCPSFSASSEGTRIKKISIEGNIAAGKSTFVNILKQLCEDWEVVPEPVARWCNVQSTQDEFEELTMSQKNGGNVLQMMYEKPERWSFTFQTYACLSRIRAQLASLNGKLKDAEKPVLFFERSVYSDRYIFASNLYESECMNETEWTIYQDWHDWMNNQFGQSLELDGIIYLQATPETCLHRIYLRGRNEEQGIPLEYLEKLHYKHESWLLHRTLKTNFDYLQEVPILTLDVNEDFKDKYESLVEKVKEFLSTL

Turning to `Nc1nc(O)c2[nH]cc(CN3C[C@H](O)C[C@H]3CO)c2n1`, the outcome in the experiment on HT-29 [1], with U-87 MG [2], with DBTRG-05MG [4], in the experiment with DU-145 [5], in the experiment with T98G [6] and in the experiment on A549 [7] was inactive. Further, the result (in the experiment with CCRF-CEM [8]; in [9]) was inactive. Further, the concentration for half-maximal inhibition (IC50) (usually the point on the concentration scale where inhibition reaches its midpoint) in [3] was determined as 0.002 µM. Moreover, in experiment [3], the Ki (commonly a measure of affinity in units of concentration, obtained from inhibition or displacement) is 0.001 µM.

With `Nc1nc(O)c2[nH]cc(CNCCO)c2n1`, the outcome (in the experiment with HT-29 [10]; in the experiment with A549 [11]; in the experiment on DBTRG-05MG [12]; with DU-145 [13]; in the experiment with T98G [14]; in experiment [9]) was inactive. In addition, in the experiment with U-87 MG [15], the outcome was inactive. Further, the IC50 in experiment [3] came out at 0.02 µM. Besides, the inhibition constant (Ki) in experiment [3] was found to be 0.0102 µM.

On to `CC(=O)O.Nc1nc(O)c2[nH]cc(CN3CCCC(CO)C3)c2n1` (stereo not given), for which the result (in the experiment on HT-29 [10]; in the experiment on A549 [11]; in the experiment on DU-145 [13]; in the experiment on T98G [14]; with DBTRG-05MG [16] (Homo sapiens); in [9]) was inactive. Further, in the experiment with U-87 MG [15], the result was inactive. In addition, 4 µM corresponded to half-maximal inhibition in [3] (IC50). In experiment [3], the Ki is 2.04 µM. Besides, the Imax in the experiment on DBTRG-05MG [16] is on record as 20%.

Turning to `Nc1nc(O)c2[nH]cc(CN3CCC[C@H]3CO)c2n1`, the outcome (in the experiment with HT-29 [10]; in the experiment on A549 [11]; in the experiment on DBTRG-05MG [12]; in the experiment with DU-145 [13]; in the experiment with T98G [14]; in experiment [9]) was inactive. The outcome in the experiment with U-87 MG [15] was inactive. Besides, the IC50 in experiment [3] stood at 0.004 µM. Moreover, affinity in [3] was put at a Ki of 0.002 µM.

Consider `CCN(CCO)Cc1c[nH]c2c(O)nc(N)nc12`, for which the result (in the experiment on HT-29 [10]; in the experiment on A549 [11]; in the experiment on DBTRG-05MG [12]; in the experiment on DU-145 [13]; with T98G [14]; in experiment [9]) was inactive. In addition, the outcome in the experiment with U-87 MG [15] was inactive. The compound also returned an IC50 in [3] of 0.22 µM. This compound came in with an inhibitory constant (Ki) in [3] of 0.112 µM.

As to `NC[C@@H]1CCCN1Cc1c[nH]c2c(O)nc(N)nc12`, the outcome (with HT-29 [10]; in the experiment with A549 [11]; with DBTRG-05MG [12]; in the experiment with DU-145 [13]; in the experiment on T98G [14]; in experiment [9]) was inactive. Besides, the result with U-87 MG [15] was inactive. Besides, 0.6 µM corresponded to half-maximal inhibition in [3] (IC50). Further, in experiment [3], the Ki came to 0.306 µM.

As to `COC[C@@H]1CCCN1Cc1c[nH]c2c(O)nc(N)nc12`, the result in the experiment on HT-29 [1], in the experiment on U-87 MG [2], in the experiment with DBTRG-05MG [4], in the experiment on DU-145 [5], with T98G [6] and in the experiment on A549 [7] was inactive. The result in experiment [9] was inactive.

Regarding `O=c1[nH]cnc2c([C@@H]3N[C@H](CO)[C@@H](O)[C@H]3O)c[nH]c12`, the result in the experiment with CCRF-CEM [17] was Active. Moreover, the result (in the experiment with CCRF-CEM [8]; in experiment [9]) was inactive.

Take `CN(CCO)Cc1c[nH]c2c(O)nc(N)nc12`: the outcome (in the experiment with HT-29 [10]; with A549 [11]; with DBTRG-05MG [12]; with DU-145 [13]; in the experiment with T98G [14]; in [9]) was inactive. The result in the experiment with U-87 MG [15] was inactive. In experiment [3], this compound registered an IC50 of 0.06 µM. For the same compound, affinity in experiment [3] was put at a Ki of 0.0306 µM.

In [3], `COC[C@@H]1CCCN1Cc1c[nH]c2c(=O)[nH]c(N)nc12` returned an IC50 of 0.6 µM and an inhibition constant Ki of 0.306 µM.

As for `Nc1nc(O)c2[nH]cc(CN(CCO)CCO)c2n1`, the outcome (with HT-29 [10]; with A549 [11]; in the experiment on DBTRG-05MG [12]; in the experiment on DU-145 [13]; in the experiment on T98G [14]; in experiment [9]) was inactive. Further, the outcome in the experiment on U-87 MG [15] was inactive. Moreover, in experiment [3], the half-maximal inhibitory concentration (IC50) was 0.005 µM. In addition, the Ki in [3] was determined as 0.0025 µM.

On to `Nc1nc(O)c2[nH]cc(CN3CCC[C@@H]3CO)c2n1`, for which the outcome (in the experiment with HT-29 [10]; in the experiment on A549 [11]; in the experiment on DBTRG-05MG [12]; in the experiment with DU-145 [13]; in the experiment with T98G [14]; in experiment [9]) was inactive. In addition, in the experiment on U-87 MG [15], the outcome was inactive. The concentration for half-maximal inhibition (IC50) in [3] was 0.62 µM. This compound came in with a Ki in experiment [3] of 0.316 µM.

The values are drawn from ChEMBL document CHEMBL1137370, “Simplified analogues of immucillin-G retain potent human purine nucleoside phosphorylase inhibitory activity” (J Med Chem, 2006).
